From article PMC10743086, “Immunofluorescence-Based Assay for High-Throughput Analysis of Multidrug Resistance Markers in Non-Small Cell Lung Carcinoma Patient-Derived Cells” (Diagnostics, 2023)

Experiments:
Format in all cases: cell-based, human
[1] = tested on: ABCB1 expression in cancer cells (CK8/18+); assay: Immunofluorescence assay of ABCB1 expression in patient-derived NSCLC cultures; conditions: 7 days
Experimental: (§1) Tissue samples were collected during surgery, and the NSCLC diagnosis, histological grade, stage, necrosis, and lymph node invasion status were determined by histopathological analysis. […] The surgical specimens were placed in a sterile tube containing antibiotic-antimycotic solution (Sigma-Aldrich Chemie GmbH, Taufkirchen, Germany) and immediately transported to the research laboratory for further processing.
(§2) Upon arrival, the tissue was manually chopped with a surgical blade in a Petri dish under sterile conditions. The samples were cut into 3–5 mm pieces and further dissociated using the Tumor Dissociation Kit (Miltenyi Biotec, Bergisch Gladbach, Germany). The Tumor Dissociation Kit was used to dissociate the cells from the tumor tissue according to the manufacturer’s instructions. The samples were incubated in a 37 °C orbital shaker (KS 4000 ic control, IKA, Königswinter, Germany) at 300 rpm for 90 min. After incubation, the dissociated tissue was placed in DMEM/Ham’s F12 (1:3 ratio) growth medium supplemented with 5% fetal bovine serum (Corning, NY, USA), antibiotic-antimycotic solution, 4 µg/mL hydrocortisone (Sigma-Aldrich Chemie GmbH, Taufkirchen, Germany), 1 µg/mL insulin (Sigma-Aldrich Chemie GmbH, Taufkirchen, Germany), 10 ng/mL epidermal growth factor (BioLegend, San Diego, CA, USA), and 24 µg/mL adenine (Sigma-Aldrich Chemie GmbH, Taufkirchen, Germany). The DMEM and Ham’s F12 growth media were purchased from Sigma-Aldrich Chemie GmbH (Taufkirchen, Germany).
(§3) The dissociated tissue was cultured in T-25 cell culture flasks until cell attachment was observed before the medium was replaced. If no cell attachment was achieved within 7 days, the sample was discarded. Successful patient-derived cultures were maintained at 37 °C in a humidified atmosphere with 5% CO2 and grown to confluence before undergoing further experiments. […] Partial trypsinization was performed by detaching the fibroblast-like cells with 1 mL of 0.05% trypsin for 1 min at 37 °C, followed by 2 min at room temperature (RT).
(§4) Vinorelbine and pemetrexed were purchased from Selleckchem (Houston, TX, USA). Carboplatin, cisplatin, docetaxel, etoposide, gemcitabine, gefitinib, and paclitaxel were purchased from Sigma-Aldrich Chemie GmbH (Taufkirchen, Germany). The cisplatin, carboplatin, and gemcitabine were dissolved in sterile water, while the etoposide, docetaxel, vinorelbine, paclitaxel, gefitinib, and pemetrexed were dissolved in DMSO and stored at −20 °C. Before treatment, all the stock solutions were freshly diluted in sterile water.
(§5) The primary cells were seeded in black, clear bottom 384-well cell culture microplates (Thermo Fisher Scientific, Waltham, MA, USA) in 50 µL of cell growth medium at a density of 1000 cells per well. The compounds were administered 72 h after seeding. The treatment lasted 7 days.
(§6) The immunofluorescence assay for the quantification of MDR markers was optimized to distinguish cancer cells from stromal cells using a cytokeratin 8/18 (CK8/18) antibody cocktail. The cells were fixed with 4% paraformaldehyde for 20 min at RT and washed three times with PBS using the Wellwash Versa microplate washer (Thermo Fisher Scientific, Waltham, MA, USA). The cells were then blocked with 2% bovine serum albumin (BSA) in PBS for 1 h at RT. […] Co-immunostaining with antibodies against MDR markers was performed to detect the presence of ABCB1, ABCC1, and ABCG2 in both the cancer and stromal cells. […] The secondary antibodies were incubated with the cells at RT for 2 h in the dark. […] Finally, the cells were washed three times with PBS and stored at 4 °C in the dark before imaging.

[2] = tested on: Non-cancer cells (CK8/18-) of patient-derived NSCLC cultures; assay: Cytotoxicity in patient-derived NSCLC cultures, non-cancer cells; conditions: 7 days treatment
Experimental: as §1, §2, §3, §4, §5, §6

[3] = tested on: ABCB1 expression in NCI-H460/R cells; assay: Immunofluorescence assay of MDR marker ABCB1 expression; conditions: five concentrations, 24 h
Experimental: as §4
(§7) The compounds were administered 48 h after seeding. The treatment lasted 24 h.
as §6
(§8) The fluorescently labeled cells were imaged using the ImageXpress Pico Automated Cell Imaging System (Molecular Devices, San Jose, CA, USA) with a 4x objective after determining the appropriate exposure time for each illumination filter. Analysis of the obtained images was performed using CellReporterXpress software v. 2.8.2.669 (Molecular Devices). The cytotoxicity of the compounds was determined using the Cell Scoring Analysis Protocol. […] Expression of MDR markers was determined using the Multi-Wavelength Cell Scoring Analysis Protocol.

[4] = tested on: ABCB1 expression in MRC-5 cells; assay: as above; conditions: five concentrations, 24 h
Experimental: as §4, §7, §6, §8

[5] = tested on: ABCB1 expression in NCI-H460 cells; assay: as above; conditions: five concentrations, 24 h
Experimental: as §4, §7, §6, §8

NCI-H460/R cells = assay: Cytotoxicity by immunofluorescence cell scoring (cell counts), multidrug-resistant NSCLC cell line; conditions: 24 h treatment
Source text: Human non-small cell lung carcinoma cells (NCI-H460) were purchased from the American Type Culture Collection (Rockville, MD, USA), and normal embryonic lung fibroblasts (MRC-5) were purchased from the European Collection of Authenticated Cell Cultures (Salisbury, UK). Multidrug-resistant NCI-H460/R cells overexpressing ABCB1 were selected from the NCI-H460 cells after selective pressure with doxorubicin [21]. All the cell lines were maintained in MEM medium (Sigma-Aldrich Chemie GmbH, Taufkirchen, Germany) supplemented with 10% FBS, 2 mM L-glutamine, and antibiotic-antimycotic solution. All the cell lines were maintained at 37 °C in a humidified atmosphere with 5% CO2.
as §4, §7, §6, §8

[6] = tested on: Cancer cells (CK8/18+) of patient-derived NSCLC cultures; assay: Cytotoxicity in patient-derived NSCLC cultures, cancer cells; conditions: 7 days treatment
Experimental: as §1, §2, §3, §4, §5, §6

[7] = tested on: ABCC1 expression in cancer cells (CK8/18+); assay: Immunofluorescence assay of ABCC1 expression in patient-derived NSCLC cultures; conditions: 7 days
Experimental: as §1, §2, §3, §4, §5, §6

[8] = culture TR58, cancer cells (CK8/18+)
[9] = culture TR64, cancer cells (CK8/18+)
[10] = culture TR65, cancer cells (CK8/18+)
[11] = culture TR84, cancer cells (CK8/18+)
[12] = culture TR87, cancer cells (CK8/18+)
[13] = NCI-H460/R (co-culture with MRC-5)
[14] = MRC-5 (co-culture with NCI-H460)
[15] = MRC-5 (co-culture with NCI-H460/R)
[16] = NCI-H460 (co-culture with MRC-5)

Compound	ABCB1 Expression [1, 8]	ABCB1 Expression [1, 9]	ABCB1 Expression [1, 10]	ABCB1 Expression [1, 11]	ABCB1 Expression [1, 12]	ABCB1 Expression [3, 13]	ABCB1 Expression ([3]; NCI-H460/R monoculture)	ABCB1 Expression [4, 14]	ABCB1 Expression [4, 15]	ABCB1 Expression ([4]; MRC-5 monoculture)	ABCB1 Expression [5, 16]	ABCB1 Expression ([5]; NCI-H460 monoculture)	ABCC1 expression [7, 8]	ABCC1 expression [7, 9]	ABCC1 expression [7, 10]	ABCC1 expression [7, 11]	ABCC1 expression [7, 12]	also measured
N.N.[Cl][Pt][Cl] [Cisplatin, cisplatin]	no change	increase (An increase in ABCB1, ABCC1, or ABCG2 expression of at least 20% at a minimum of one concentration is shown in the table.)	increase (An increase in ABCB1, ABCC1, or ABCG2 expression of at least 20% at a minimum of one concentration is shown in the table.)	increase (An increase in ABCB1, ABCC1, or ABCG2 expression of at least 20% at a minimum of one concentration is shown in the table.)	increase (An increase in ABCB1, ABCC1, or ABCG2 expression of at least 20% at a minimum of one concentration is shown in the table.)	no change	no change	no change	no change	no change	no change	increase (An increase in ABCB1 expression of at least 20% at a minimum of one concentration is shown in the table.)	no change	increase (An increase in ABCB1, ABCC1, or ABCG2 expression of at least 20% at a minimum of one concentration is shown in the table.)	increase (An increase in ABCB1, ABCC1, or ABCG2 expression of at least 20% at a minimum of one concentration is shown in the table.)	increase (An increase in ABCB1, ABCC1, or ABCG2 expression of at least 20% at a minimum of one concentration is shown in the table.)	increase (An increase in ABCB1, ABCC1, or ABCG2 expression of at least 20% at a minimum of one concentration is shown in the table.)	IC50 ([2]; culture TR58, non-cancer cells (CK8/18-)): 5100 nM; IC50 ([2]; culture TR64, non-cancer cells (CK8/18-)): 8260 nM; IC50 ([2]; culture TR65, non-cancer cells (CK8/18-)): 1200 nM; IC50 ([2]; culture TR84, non-cancer cells (CK8/18-)): 789 nM; IC50 ([2]; culture TR87, non-cancer cells (CK8/18-)): 3380 nM; IC50 (NCI-H460/R cells; [13]): 5600 nM; IC50 (NCI-H460/R cells; NCI-H460/R monoculture): 5330 nM; IC50 [6, 8]: 5780 nM; IC50 [6, 9]: 6070 nM; IC50 [6, 10]: 14600 nM; IC50 [6, 11]: 2110 nM; IC50 [6, 12]: 4820 nM
CC(=O)O[C@@]12CO[C@@H]1C[C@H](O)[C@@]1(C)C(=O)[C@H](O)C3=C(C)[C@@H](OC(=O)[C@H](O)[C@@H](NC(=O)OC(C)(C)C)c4ccccc4)C[C@@](O)([C@@H](OC(=O)c4ccccc4)[C@H]21)C3(C)C [Docetaxel, docetaxel]	no change	increase (An increase in ABCB1, ABCC1, or ABCG2 expression of at least 20% at a minimum of one concentration is shown in the table.)	no change	increase (An increase in ABCB1, ABCC1, or ABCG2 expression of at least 20% at a minimum of one concentration is shown in the table.)	increase (An increase in ABCB1, ABCC1, or ABCG2 expression of at least 20% at a minimum of one concentration is shown in the table.)	no change	no change	no change	no change	no change	increase (An increase in ABCB1 expression of at least 20% at a minimum of one concentration is shown in the table.)	increase (An increase in ABCB1 expression of at least 20% at a minimum of one concentration is shown in the table.)	no change	increase (An increase in ABCB1, ABCC1, or ABCG2 expression of at least 20% at a minimum of one concentration is shown in the table.)	increase (An increase in ABCB1, ABCC1, or ABCG2 expression of at least 20% at a minimum of one concentration is shown in the table.)	increase (An increase in ABCB1, ABCC1, or ABCG2 expression of at least 20% at a minimum of one concentration is shown in the table.)	increase (An increase in ABCB1, ABCC1, or ABCG2 expression of at least 20% at a minimum of one concentration is shown in the table.)	IC50 ([2]; Homo sapiens, 168 h, culture TR58, non-cancer cells (CK8/18-)): 1590 nM; IC50 ([2]; Homo sapiens, 168 h, culture TR64, non-cancer cells (CK8/18-)): 2720 nM; IC50 ([2]; Homo sapiens, 168 h, culture TR65, non-cancer cells (CK8/18-)): 461 nM; IC50 ([2]; Homo sapiens, 168 h, culture TR84, non-cancer cells (CK8/18-)): 182 nM; IC50 ([2]; Homo sapiens, 168 h, culture TR87, non-cancer cells (CK8/18-)): 3050 nM; IC50 (NCI-H460/R cells; Homo sapiens, NCI-H460/R (co-culture with MRC-5)): 801 nM; IC50 (NCI-H460/R cells; Homo sapiens, NCI-H460/R monoculture): 704 nM; IC50 ([6]; Homo sapiens, 168 h, culture TR58, cancer cells (CK8/18+)): 1310 nM; IC50 ([6]; Homo sapiens, 168 h, culture TR64, cancer cells (CK8/18+)): 1560 nM; IC50 ([6]; Homo sapiens, 168 h, culture TR65, cancer cells (CK8/18+)): > 5000 nM; IC50 ([6]; Homo sapiens, 168 h, culture TR84, cancer cells (CK8/18+)): 1850 nM; IC50 ([6]; Homo sapiens, 168 h, culture TR87, cancer cells (CK8/18+)): > 5000 nM
